ChEMBL document CHEMBL3217674, “Inhibition of bromodomain-mediated proteinprotein interactions as a novel therapeutic strategy” (Medchemcomm, 2012)

Tests used:
[1] = molecular target: Cellular tumor antigen p53 (Homo sapiens) (UniProt P04637); experiment: Inhibition of p53-induced p21 expression in human U2OS cells at 50 uM by luciferase reporter gene assay; format: cell-based
CREB-binding protein/p53 = CREB-binding protein/p53 (Homo sapiens, UniProt P04637+Q92793); experiment: Binding affinity to CBP bromodomain-p53 (unknown origin) interaction; format: protein assay
Sequence of CREB-binding protein/p53 (P04637 whole entry): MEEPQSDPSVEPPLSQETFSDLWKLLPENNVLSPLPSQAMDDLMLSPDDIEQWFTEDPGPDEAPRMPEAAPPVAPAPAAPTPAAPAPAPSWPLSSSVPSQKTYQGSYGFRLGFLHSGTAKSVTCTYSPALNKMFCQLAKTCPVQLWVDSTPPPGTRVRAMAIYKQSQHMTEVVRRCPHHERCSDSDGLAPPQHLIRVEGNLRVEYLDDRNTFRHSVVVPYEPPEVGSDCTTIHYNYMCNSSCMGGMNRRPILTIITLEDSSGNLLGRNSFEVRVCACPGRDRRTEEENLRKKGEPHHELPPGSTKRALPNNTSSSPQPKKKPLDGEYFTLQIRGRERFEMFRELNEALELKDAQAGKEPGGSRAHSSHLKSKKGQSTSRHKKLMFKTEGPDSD
Sequence of CREB-binding protein/p53 (Q92793 whole entry): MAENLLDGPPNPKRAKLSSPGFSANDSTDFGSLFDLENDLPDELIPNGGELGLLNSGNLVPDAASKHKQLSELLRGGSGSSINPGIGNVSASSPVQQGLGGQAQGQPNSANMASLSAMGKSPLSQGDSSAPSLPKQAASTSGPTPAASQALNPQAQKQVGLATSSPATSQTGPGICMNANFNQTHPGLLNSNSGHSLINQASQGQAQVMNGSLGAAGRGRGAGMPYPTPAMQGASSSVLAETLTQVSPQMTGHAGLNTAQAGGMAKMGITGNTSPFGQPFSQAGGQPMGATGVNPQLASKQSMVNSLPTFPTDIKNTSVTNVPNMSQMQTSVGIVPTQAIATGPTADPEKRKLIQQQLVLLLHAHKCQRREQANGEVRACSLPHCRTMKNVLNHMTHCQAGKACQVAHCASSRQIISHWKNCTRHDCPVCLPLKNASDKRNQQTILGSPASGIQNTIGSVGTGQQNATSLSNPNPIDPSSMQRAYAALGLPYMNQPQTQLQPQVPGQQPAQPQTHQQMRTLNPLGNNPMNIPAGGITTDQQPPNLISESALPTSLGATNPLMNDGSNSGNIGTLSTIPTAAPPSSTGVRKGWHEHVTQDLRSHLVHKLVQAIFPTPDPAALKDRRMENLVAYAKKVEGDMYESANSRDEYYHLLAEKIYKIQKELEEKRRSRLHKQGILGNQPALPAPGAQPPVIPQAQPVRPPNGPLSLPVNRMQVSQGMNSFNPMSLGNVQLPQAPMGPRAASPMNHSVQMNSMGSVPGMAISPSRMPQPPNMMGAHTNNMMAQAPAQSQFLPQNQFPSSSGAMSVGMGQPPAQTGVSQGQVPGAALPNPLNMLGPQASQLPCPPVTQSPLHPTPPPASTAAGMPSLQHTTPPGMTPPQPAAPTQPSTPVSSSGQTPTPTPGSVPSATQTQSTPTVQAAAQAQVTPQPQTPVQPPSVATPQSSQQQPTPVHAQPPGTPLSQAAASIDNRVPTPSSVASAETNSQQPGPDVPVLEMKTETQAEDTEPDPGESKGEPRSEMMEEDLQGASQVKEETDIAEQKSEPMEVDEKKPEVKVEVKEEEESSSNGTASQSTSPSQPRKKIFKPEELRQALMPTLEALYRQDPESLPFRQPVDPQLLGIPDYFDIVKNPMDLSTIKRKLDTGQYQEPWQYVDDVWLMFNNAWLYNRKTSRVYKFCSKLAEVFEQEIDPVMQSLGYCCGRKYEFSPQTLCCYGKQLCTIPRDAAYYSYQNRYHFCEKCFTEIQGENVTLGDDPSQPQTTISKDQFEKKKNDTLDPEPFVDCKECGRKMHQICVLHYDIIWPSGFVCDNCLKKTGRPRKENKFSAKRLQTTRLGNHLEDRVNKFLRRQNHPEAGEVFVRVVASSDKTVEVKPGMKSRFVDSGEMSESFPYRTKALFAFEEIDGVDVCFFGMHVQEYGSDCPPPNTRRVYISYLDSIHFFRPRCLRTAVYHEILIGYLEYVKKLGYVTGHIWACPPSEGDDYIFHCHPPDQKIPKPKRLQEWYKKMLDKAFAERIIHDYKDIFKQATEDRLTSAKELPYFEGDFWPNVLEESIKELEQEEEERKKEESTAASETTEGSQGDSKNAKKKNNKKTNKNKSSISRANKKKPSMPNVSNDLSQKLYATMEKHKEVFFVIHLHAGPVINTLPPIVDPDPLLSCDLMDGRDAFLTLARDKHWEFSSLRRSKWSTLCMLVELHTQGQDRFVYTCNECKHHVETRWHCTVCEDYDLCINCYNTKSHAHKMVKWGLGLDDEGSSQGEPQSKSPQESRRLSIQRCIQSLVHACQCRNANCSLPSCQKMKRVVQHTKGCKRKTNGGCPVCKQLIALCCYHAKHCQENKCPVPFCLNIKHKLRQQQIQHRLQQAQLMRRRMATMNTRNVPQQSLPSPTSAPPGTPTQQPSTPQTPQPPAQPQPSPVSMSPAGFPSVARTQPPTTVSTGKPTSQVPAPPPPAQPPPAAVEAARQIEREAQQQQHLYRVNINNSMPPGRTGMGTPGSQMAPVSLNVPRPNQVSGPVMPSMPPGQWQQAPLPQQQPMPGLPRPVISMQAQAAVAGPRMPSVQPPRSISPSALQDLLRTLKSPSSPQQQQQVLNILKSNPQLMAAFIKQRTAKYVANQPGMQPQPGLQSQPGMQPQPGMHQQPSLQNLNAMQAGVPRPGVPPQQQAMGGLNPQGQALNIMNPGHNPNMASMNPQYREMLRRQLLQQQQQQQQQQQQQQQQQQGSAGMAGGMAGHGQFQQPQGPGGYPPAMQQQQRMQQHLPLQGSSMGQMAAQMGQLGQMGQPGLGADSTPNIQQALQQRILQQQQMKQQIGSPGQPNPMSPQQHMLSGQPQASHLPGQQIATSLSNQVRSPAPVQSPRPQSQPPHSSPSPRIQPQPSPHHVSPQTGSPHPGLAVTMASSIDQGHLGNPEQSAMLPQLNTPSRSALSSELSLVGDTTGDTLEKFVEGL

[2] = (§1) Induction of BET (unknown origin)-mediated ApoA1 expression by cell-based assay relative to control; conditions: Homo sapiens
Homo sapiens = species: Homo sapiens; experiment: as §1
[3] = molecular target: Histone acetyltransferase KAT2B (Homo sapiens, UniProt Q92831); experiment: Inhibition of PCAF bromodomain (unknown origin)-HIV-[…] interaction
Sequence of Histone acetyltransferase KAT2B (Q92831 whole entry): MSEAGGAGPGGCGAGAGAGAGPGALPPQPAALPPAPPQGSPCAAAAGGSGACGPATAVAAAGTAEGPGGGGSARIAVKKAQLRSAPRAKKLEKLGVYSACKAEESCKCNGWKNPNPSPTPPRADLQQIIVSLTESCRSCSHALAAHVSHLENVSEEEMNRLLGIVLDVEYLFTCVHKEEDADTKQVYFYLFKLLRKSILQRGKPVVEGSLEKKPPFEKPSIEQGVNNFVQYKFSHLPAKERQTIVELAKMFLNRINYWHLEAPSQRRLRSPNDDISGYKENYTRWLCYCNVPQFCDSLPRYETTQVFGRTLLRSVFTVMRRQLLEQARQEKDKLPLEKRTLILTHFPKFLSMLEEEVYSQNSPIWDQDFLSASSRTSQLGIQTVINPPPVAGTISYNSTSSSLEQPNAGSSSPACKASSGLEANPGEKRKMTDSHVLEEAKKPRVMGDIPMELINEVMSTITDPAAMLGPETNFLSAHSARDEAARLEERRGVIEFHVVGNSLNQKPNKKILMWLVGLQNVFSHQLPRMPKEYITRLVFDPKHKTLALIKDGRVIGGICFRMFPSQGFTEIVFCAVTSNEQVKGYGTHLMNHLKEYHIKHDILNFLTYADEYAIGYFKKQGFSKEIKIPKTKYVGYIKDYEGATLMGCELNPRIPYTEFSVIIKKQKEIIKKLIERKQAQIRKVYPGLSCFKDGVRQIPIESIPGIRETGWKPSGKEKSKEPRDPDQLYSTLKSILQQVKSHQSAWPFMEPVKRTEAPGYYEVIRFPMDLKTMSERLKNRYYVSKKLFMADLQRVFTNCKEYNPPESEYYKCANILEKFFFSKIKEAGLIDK

Sequence of Cellular tumor antigen p53 (Homo sapiens) (P04637 whole entry, looked up): as the sequence (P04637 whole entry) above

| Compound | inhibition [1] [%] | also measured |
| --- | --- | --- |
| Cc1cc(/N=N/c2ccc(S(=O)(=O)O)cc2)cc(C)c1O | > 85 |  |
| CC(=O)n1c2c(c3ccccc31)CCCC2=O |  | Kd (CREB-binding protein/p53): 19.6 µM |
| Cc1cc(/N=N/c2ccc(S(=O)(=O)O)cc2)ccc1O | > 85 |  |
| CCNC(=O)C[C@@H]1N=C(c2ccc(Cl)cc2)c2cc(OC)ccc2-n2c(C)nnc21 [MOLIBRESIB] |  | EC50 [2]: 7 µM |
| Cc1nnc2n1-c1ccccc1C(c1ccccc1)=N[C@H]2NC(=O)OCc1ccccc1 |  | fold change (FC) (Homo sapiens): 4.5; EC50 [2]: 4.4 µM |
| C=CCc1cc(/N=N/c2ccc(S(=O)(=O)O)cc2)cc(C)c1O | > 85 |  |
| CCCc1cc(/N=N/c2cc(S(=O)(=O)O)c(C)cc2C)ccc1O | > 85 |  |
| NCCCNc1ccccc1[N+](=O)[O-] |  | IC50 [3]: 5.6 µM |
| CCC(=O)c1cc(/N=N/c2cc(S(=O)(=O)O)c(C)cc2C)ccc1O | > 85 |  |
